The source of these data is publication PMC12040169 (PLOS Biology, 2025).

The data set is described as follows: in vitro. As to conditions: human, hela cells, % viability.

The viability is a read-out of living cells in per cent, often relative to untreated cells. Consider `CN(C)C(=O)CN1CCN(CCc2ccccc2)CC1` [CBK126455], for which the viability at 28.5 h, 10 µM turned out to be 98.8%.
For the molecule `CCOC(=O)CN(Cc1ccccc1)Cc1ccc(OC)cc1` [CBK126460], the viability at 28.5 h, 10 µM stood at 103%.
With `COc1cc(Nc2cncc(-c3ccc(O)cc3)n2)c(Cl)cc1C(=O)NCC1CCCO1` (stereo not shown) [CBK126468] the figure was 100%; with `COc1cc(Nc2cncc(-c3ccc(O)cc3)n2)c(Cl)cc1C(=O)NCC(F)(F)F` [CBK126470], 82.9%; with `COCCCn1c(N)c(C(=O)NCC(C)C)c2nc3ccccc3nc21` [CBK126495], 84.9%.
With `COc1cc(CNC(=O)c2cccc(-c3ccc(OC4CCNCC4)cc3)n2)cc(OC)c1OC` [CBK126550T] the figure was 87.1%; with `CCN(CC)c1ccc(NC(=O)c2cc(-c3cccnc3)cnc2NCCN2CCOCC2)cc1` [CBK126566], 105%.
As to `c1ccc2c(-c3ccc(OC4CCNCC4)cc3)cncc2c1` [CBK126578], the viability at 28.5 h, 10 µM was determined as 112%.
With `CS(=O)(=O)N1CC2(CCN(Cc3ccc(OC(F)(F)F)cc3)CC2)c2ccccc21` [CBK126668] the figure was 99.4%; with `CS(=O)(=O)N1CC2(CCN(Cc3cccc(C(F)(F)F)c3)CC2)c2ccccc21` [CBK126670], 96.8%.
With `CS(=O)(=O)N1CC2(CCN(Cc3nc4ccccc4[nH]3)CC2)c2ccccc21` [CBK126672] the figure was 89.2%; with `CS(=O)(=O)N1CC2(CCN(CCO)CC2)c2ccccc21` [CBK126677], 94.5%.
With `CS(=O)(=O)N1CC2(CCN(CC(N)=O)CC2)c2ccccc21` [CBK126678], the viability at 28.5 h, 10 µM came out at 81.5%.
As to `CS(=O)(=O)N1CC2(CCN(Cc3ncc[nH]3)CC2)c2ccccc21` [CBK126680], the viability at 28.5 h, 10 µM came out at 98.8%.
With `CCNC(=O)N1CC2(CCN(Cc3nc4ccccc4[nH]3)CC2)c2ccccc21` [CBK126693] the figure was 98%; with `CCNC(=O)N1CC2(CCN(CCS(=O)(=O)c3ccccc3)CC2)c2ccccc21` [CBK126698], 90.9%.
With `CC(C)C(=O)N1CC2(CCN(Cc3cccc(C(F)(F)F)c3)CC2)c2ccccc21` [CBK126716], the viability at 28.5 h, 10 µM was 102%.
As for `CC(C)C(=O)N1CC2(CCN(CCc3c[nH]c4ccccc34)CC2)c2ccccc21` [CBK126725], the viability at 28.5 h, 10 µM is 95.6%.
In the case of `CC(C)C(=O)N1CC2(CCN(CCS(=O)(=O)c3ccccc3)CC2)c2ccccc21` [CBK126726], the viability at 28.5 h, 10 µM was 95.4%.
With `Cc1cc(C(=O)N2CCN(C)CC2)ccc1-c1cnc(N)c(-c2ccc(O)cc2)n1` [CBK126749] the figure was 94.8%; with `O=S(=O)(CCN1CCC2(CC1)CN(CCO)c1ccccc12)c1ccccc1` [CBK126758], 102%.
With `OCCN1CCC2(CC1)CN(CCO)c1ccccc12` [CBK126759] the figure was 87.4%; with `O=C(CN1CCC2(CC1)CN(CCO)c1ccccc12)Nc1ccc(F)c(Cl)c1` [CBK126761], 94.6%.
With `OCCN1CC2(CCN(CCC(c3ccccc3)c3ccccc3)CC2)c2ccccc21` [CBK126765] the figure was 88.9%.
For the molecule `COc1cc(CN2CCC3(CC2)CN(CC(N)=O)c2ccccc23)cc(OC)c1OC` [CBK126774], the viability at 28.5 h, 10 µM amounted to 93.1%.
With `NC(=O)CN1CC2(CCN(Cc3ccc(Cl)c(Cl)c3)CC2)c2ccccc21` [CBK126775] the figure was 109%; with `NC(=O)CN1CC2(CCN(CCS(=O)(=O)c3ccccc3)CC2)c2ccccc21` [CBK126786], 103%; with `NC(=O)CN1CC2(CCN(CCCn3c(=O)[nH]c4ccccc43)CC2)c2ccccc21` [CBK126787], 89.6%.
Regarding `NC(=O)CN1CC2(CCN(CC(=O)Nc3ccc(F)c(Cl)c3)CC2)c2ccccc21` [CBK126790], the viability at 28.5 h, 10 µM was 99.2%.
For the molecule `NC(=O)CN1CC2(CCN(CCCCC3NC(=O)NC3=O)CC2)c2ccccc21` (stereo not shown) [CBK126799], the viability at 28.5 h, 10 µM stood at 95.9%.
With `CSCCN1CCC2(CC1)CN(CC(N)=O)c1ccccc12` [CBK126801] the figure was 92.9%.
Turning to `COc1ccc(OC)c(-c2nc(Nc3ccccc3C)sc2CC(=O)O)c1` [CBK126811], the viability at 28.5 h, 10 µM was determined as 101%.
With `CC(=O)Nc1sc2c(c1C(=O)O)CCc1ccccc1-2` [CBK126812] the figure was 96.9%; with `Cc1cc(C(=O)O)c(NC(=O)c2cccc(Cl)c2)s1` [CBK126813], 100%.
`O=C(CSCc1ccccc1)Nc1ccc(O)cc1C(=O)O` [CBK126817]: the viability at 28.5 h, 10 µM is 103%.
On to `CCC(=O)Nc1ccc(O)cc1C(=O)O` [CBK126818], for which the viability at 28.5 h, 10 µM was determined as 92.8%.
With `C=CCn1c(SCC(=O)Nc2ccc(OC)cc2)nnc1-c1ccncc1` [CBK126824] the figure was 88.9%; with `CCOCCCNC(=O)/C(=C/c1cccnc1)NC(=O)c1ccccc1` [CBK126866], 90.8%; with `Cc1cc(N2CCOCC2)c2c(N)c(C)cc(C)c2n1` [CBK126908], 83.8%.
Consider `CCCN1CCc2c(sc3nc(SCC(=O)OC)nc(N)c23)C1` [CBK126911], for which the viability at 28.5 h, 10 µM worked out at 96.6%.
`O=C(CSCc1ccc(Cl)cc1Cl)Nc1c[nH]c(=O)[nH]c1=O` [CBK126912]: the viability at 28.5 h, 10 µM is 90.4%.
`CCc1c(C)nc2ccc(Br)cc2c1SCCC(=O)O` [CBK126914]: the viability at 28.5 h, 10 µM came out at 113%.
With `CCCCc1c(C)nc2c(OC)cccc2c1SCCC(=O)O` [CBK126917] the figure was 99.5%; with `O=C(O)CSc1cccc2cccnc12` [CBK126918], 95%; with `CN(C)CC(=O)N1CCN(c2cncc(-c3ccc(O)cc3)n2)CC1` [CBK126921T], 97.2%.
With `CN(C)CCN(C)C(=O)C1CCN(c2cncc(-c3ccc(O)cc3)n2)CC1` [CBK126928T] the figure was 88%; with `COc1ccc(C(=O)NCCCN(C)C)cc1Nc1cncc(-c2ccc(O)cc2)n1` [CBK126938T], 95%.
For `O=C(N1CCCC1)N1CCN(c2cncc(-c3ccc(O)cc3)n2)CC1` [CBK126947T], the viability at 28.5 h, 10 µM is 93.5%.
As for `COCCN1CCN(c2cncc(-c3ccc(O)cc3)n2)CC1` [CBK126951T], the viability at 28.5 h, 10 µM came to 93.6%.
`O=C(Cn1nnc(-c2ccc(CN3CCOCC3)cc2)n1)Nc1ccc(Br)cc1` [CBK127364]: the viability at 28.5 h, 10 µM was determined as 94.1%.
In the case of `CCn1c(SCC(=O)Nc2nc(C)c(C(=O)OC)s2)nc2c1c(=O)n(C)c(=O)n2C` [CBK127470], the viability at 28.5 h, 10 µM turned out to be 101%.
With `Cn1c(=O)c2c(ncn2CC(=O)Nc2ccc(OCc3ccccc3)cc2)n(C)c1=O` [CBK130478] the figure was 89.8%; with `O=C(Cc1ccc(Cl)c(Cl)c1)N1CCC2(CCN(C(=O)c3cc(F)c(F)cc3F)C2)C1` (stereo not shown) [CBK131386], 95.9%.
As to `N#Cc1cccc(C(=O)N2CCC3(CCN(C(=O)c4cc(F)c(F)cc4F)C3)C2)c1` (stereo not shown) [CBK131387], the viability at 28.5 h, 10 µM turned out to be 97.2%.
With `CSCCC(=O)N1CCC2(CCN(C(=O)c3cc(F)c(F)cc3F)C2)C1` (stereo not shown) [CBK131397] the figure was 99.5%; with `O=C(c1cncnc1)N1CCC2(CCN(C(=O)c3cc(F)c(F)cc3F)C2)C1` (stereo not shown) [CBK131405], 94.8%.
With `O=C(c1ccc2[nH]c(=O)[nH]c2c1)N1CCC2(CCN(C(=O)c3cc(F)c(F)cc3F)C2)C1` (stereo not shown) [CBK131407], the viability at 28.5 h, 10 µM was determined as 95.9%.
In the case of `O=C(Cc1c[nH]c2ccccc12)N1CCC2(CCN(C(=O)CC3CCCCC3)C2)C1` (stereo not shown) [CBK131422], the viability at 28.5 h, 10 µM amounted to 88.3%.
With `O=C(Cc1ccc(Cl)c(Cl)c1)N1CCC2(CCN(C(=O)Cc3c[nH]c4ccccc34)C2)C1` (stereo not shown) [CBK131426] the figure was 106%; with `O=C1NC(=O)C(CC(=O)N2CCC3(CCN(C(=O)Cc4c[nH]c5ccccc45)C3)C2)N1` (stereo not shown) [CBK131436], 92.8%; with `CSCCC(=O)N1CCC2(CCN(C(=O)Cc3c[nH]c4ccccc34)C2)C1` (stereo not shown) [CBK131442], 95.3%.
With `Cc1ccc(S(=O)(=O)CC(=O)N2CCC3(CCN(C(=O)Cc4c[nH]c5ccccc45)C3)C2)cc1` (stereo not shown) [CBK131443] the figure was 84%; with `Cc1cn(CC(=O)N2CCC3(CCN(C(=O)Cc4c[nH]c5ccccc45)C3)C2)c(=O)[nH]c1=O` (stereo not shown) [CBK131445], 101%.
`COc1cc(C(=O)N2CCC3(CCN(C(=O)Cc4c[nH]c5ccccc45)C3)C2)cc(OC)c1OC` (stereo not shown) [CBK131448]: the viability at 28.5 h, 10 µM was 86.7%.
As to `CN1CCN(S(=O)(=O)c2ccc(-c3cnc(N)c(-c4ccc(O)cc4)n3)cc2F)CC1` [CBK131449], the viability at 28.5 h, 10 µM was determined as 93.9%.
With `Cc1cc(-c2cncc(-c3ccc(O)cc3)n2)ccc1S(=O)(=O)N1CCOCC1` [CBK131460] the figure was 92.4%.
With `CCN1CC2(CCN(CC(N)=O)CC2)c2ccccc21` [CBK131485] the figure was 107%; with `CCN1CC2(CCN(Cc3ncc[nH]3)CC2)c2ccccc21` [CBK131486], 89.1%; with `CCN1CC2(CCN(CCCCC3NC(=O)NC3=O)CC2)c2ccccc21` (stereo not shown) [CBK131489], 96%.
Regarding `O=C(CO)N1CC2(CCN(Cc3ccc(Cl)c(Cl)c3)CC2)c2ccccc21` [CBK131495], the viability at 28.5 h, 10 µM stood at 89.5%.
`O=C(CO)N1CC2(CCN(Cc3ccc4ccccc4c3)CC2)c2ccccc21` [CBK131501]: the viability at 28.5 h, 10 µM came out at 88.7%.
With `O=C(CO)N1CC2(CCN(CCO)CC2)c2ccccc21` [CBK131507] the figure was 79.7%.
With `O=C(CO)N1CC2(CCN(CCC(c3ccccc3)c3ccccc3)CC2)c2ccccc21` [CBK131513] the figure was 106%; with `OCCN1CC2(CCN(Cc3ccc4ccccc4c3)CC2)c2ccccc21` [CBK131529], 92.6%.
`O=C(CC1CC1)N1CCCC2(CCN(C(=O)c3cc(F)c(F)cc3F)C2)C1` (stereo not shown) [CBK131531]: the viability at 28.5 h, 10 µM was determined as 96.7%.
As for `O=C(c1cc(F)c(F)cc1F)N1CCC2(CCCN(C(=O)c3cccc4[nH]ccc34)C2)C1` (stereo not shown) [CBK131544], the viability at 28.5 h, 10 µM stood at 97.3%.
